In US20240400577A1, “MODULATORS OF PROTEIN KINASES” (VIBLIOME THERAPEUTICS, LLC, priority 2021, published 2024) one finds inhibition data, which are given here for 5 compounds.

Common to all, as to assay: Kinase panel enzymatic inhibition assay (Nanosyn)
Assay type in all cases: biochemical
Holding throughout (settings): compound 5 μM; ATP at Km; 30-minute pre-incubation

One test concerns the target T1, HCK (Homo sapiens, UniProt P08631).
T1 construct: purchased Nanosyn (contract screening)
The gist of the method: (§1)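 Read-out is percent inhibition or IC50, obtained by mobility shift, ADP detection or time-resolved fluorescence detection. Each kinase was run with ATP at its Km, and compound at 5 μM was pre-incubated for 30 minutes.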

The next test has as its target T2, FYN (Homo sapiens, UniProt P06241).
T2 construct: purchased Nanosyn (contract screening)
The gist of the method:
as §1

The target in a further test is T3, FGR (Homo sapiens, UniProt P09769).
T3 construct: purchased Nanosyn (contract screening)
The method, boiled down:
as §1

The target of another test is T4, p38a (Homo sapiens, UniProt Q16539).
T4 construct: Nanosyn (contract laboratory that ran the panel)
The gist of the method:
as §1

Another test has as its target T5, LYNa (Homo sapiens, UniProt P07948).
T5 construct: purchased Nanosyn (contract screening)
The gist of the method:
as §1

For the next test, the target named is T6, PKCb1 (Homo sapiens, UniProt P05771).
T6 construct: Nanosyn (contract laboratory that ran the panel)
The gist of the method:
as §1

In the next test the target is T7, BLK (Homo sapiens, UniProt P51451).
T7 construct: purchased Nanosyn (contract screening)
The method, boiled down:
as §1

The target of another test is T8, SGK2 (Homo sapiens, UniProt Q9HBY8).
T8 construct: Nanosyn (contract laboratory that ran the panel)
T8 sequence (Q9HBY8 1-367): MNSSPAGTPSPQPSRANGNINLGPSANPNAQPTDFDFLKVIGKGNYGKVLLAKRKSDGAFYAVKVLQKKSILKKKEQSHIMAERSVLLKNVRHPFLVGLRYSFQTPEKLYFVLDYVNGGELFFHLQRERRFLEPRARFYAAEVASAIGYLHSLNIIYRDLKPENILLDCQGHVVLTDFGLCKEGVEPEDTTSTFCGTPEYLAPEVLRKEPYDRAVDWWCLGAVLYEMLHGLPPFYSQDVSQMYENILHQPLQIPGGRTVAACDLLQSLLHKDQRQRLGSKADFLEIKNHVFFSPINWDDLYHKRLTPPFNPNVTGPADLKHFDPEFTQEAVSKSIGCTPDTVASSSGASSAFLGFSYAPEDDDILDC
The method, boiled down:
as §1

The target of a further test is T9, KIT (Homo sapiens, UniProt P10721).
T9 construct: purchased Nanosyn (contract screening)
The gist of the method: as §1

Another test has as its target T10, TNIK (Homo sapiens, UniProt Q9UKE5).
T10 construct: Nanosyn (contract laboratory that ran the panel)
The gist of the method:
as §1

A further test deals with T11, Abl2 (Homo sapiens, UniProt P42684).
T11 construct: purchased Nanosyn (contract screening)
The gist of the method:
as §1

Another test addresses T12, ZAK (Homo sapiens, UniProt Q9NYL2).
T12 construct: Nanosyn (contract laboratory that ran the panel)
The method, boiled down:
as §1

A further test addresses T13, COT1 (Homo sapiens, UniProt P41279).
T13 construct: purchased Nanosyn (contract screening)
The gist of the method: as §1

The next test addresses T14, BRAF (Homo sapiens, UniProt P15056).
T14 construct: purchased Nanosyn (contract screening)
The gist of the method:
as §1

Another test has as its target T15, CSF1R (Homo sapiens, UniProt P07333).
T15 construct: purchased Nanosyn (contract screening)
The method, boiled down: as §1

For another test, the target named is T16, CSK (Homo sapiens, UniProt P41240).
T16 construct: purchased Nanosyn (contract screening)
The gist of the method:
as §1

A further test addresses T17, SGK3 (Homo sapiens, UniProt Q96BR1).
T17 construct: Nanosyn (contract laboratory that ran the panel)
T17 sequence (Q96BR1 1-496): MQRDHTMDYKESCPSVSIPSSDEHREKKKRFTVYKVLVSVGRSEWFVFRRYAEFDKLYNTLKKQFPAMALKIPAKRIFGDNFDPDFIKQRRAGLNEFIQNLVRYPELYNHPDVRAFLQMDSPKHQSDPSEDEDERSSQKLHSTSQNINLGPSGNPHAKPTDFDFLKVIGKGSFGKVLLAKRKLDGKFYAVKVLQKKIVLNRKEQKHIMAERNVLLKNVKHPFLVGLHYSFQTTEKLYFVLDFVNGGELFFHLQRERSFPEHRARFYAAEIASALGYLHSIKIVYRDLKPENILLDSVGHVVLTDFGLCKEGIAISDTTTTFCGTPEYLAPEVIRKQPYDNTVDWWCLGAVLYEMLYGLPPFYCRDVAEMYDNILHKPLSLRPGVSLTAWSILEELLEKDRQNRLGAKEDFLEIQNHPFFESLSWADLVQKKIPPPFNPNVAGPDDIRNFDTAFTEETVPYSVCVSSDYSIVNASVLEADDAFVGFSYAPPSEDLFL
The gist of the method: as §1

The target in the next test is T18, RET (Homo sapiens, UniProt P07949).
T18 construct: Nanosyn (contract laboratory that ran the panel)
The gist of the method:
as §1

Another test deals with T19, CLK4 (Homo sapiens, UniProt Q9HAZ1).
T19 construct: purchased Nanosyn (contract screening)
The method, boiled down:
as §1

A further test deals with T20, LCK (Homo sapiens, UniProt P06239).
T20 construct: purchased Nanosyn (contract screening)
The gist of the method: as §1

Another test deals with T21, Abl1 (Homo sapiens, UniProt P00519).
T21 construct: purchased Nanosyn (contract screening)
The method, boiled down: as §1

For another test, the target named is T22, SRC (Homo sapiens, UniProt P12931).
T22 construct: Nanosyn (contract laboratory that ran the panel)
The method, boiled down:
as §1

The next test deals with T23, BRK (Homo sapiens, UniProt Q13882).
T23 construct: purchased Nanosyn (contract screening)
The method, boiled down: as §1

T3 sequence (P09769 whole entry): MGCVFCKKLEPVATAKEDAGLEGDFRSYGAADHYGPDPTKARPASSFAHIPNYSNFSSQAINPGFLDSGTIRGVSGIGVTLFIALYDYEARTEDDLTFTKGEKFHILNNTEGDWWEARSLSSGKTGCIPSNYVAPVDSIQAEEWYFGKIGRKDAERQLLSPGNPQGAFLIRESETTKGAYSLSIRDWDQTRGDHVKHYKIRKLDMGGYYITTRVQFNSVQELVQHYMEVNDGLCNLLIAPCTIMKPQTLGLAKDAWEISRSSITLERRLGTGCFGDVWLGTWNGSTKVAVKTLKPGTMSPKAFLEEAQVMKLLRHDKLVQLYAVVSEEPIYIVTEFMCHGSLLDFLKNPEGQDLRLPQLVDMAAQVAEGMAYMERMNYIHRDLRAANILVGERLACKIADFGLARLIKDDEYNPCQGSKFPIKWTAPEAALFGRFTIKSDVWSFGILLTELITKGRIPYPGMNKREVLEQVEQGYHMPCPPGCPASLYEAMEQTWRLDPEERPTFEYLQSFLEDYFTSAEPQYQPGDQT
T2 sequence (P06241 whole entry): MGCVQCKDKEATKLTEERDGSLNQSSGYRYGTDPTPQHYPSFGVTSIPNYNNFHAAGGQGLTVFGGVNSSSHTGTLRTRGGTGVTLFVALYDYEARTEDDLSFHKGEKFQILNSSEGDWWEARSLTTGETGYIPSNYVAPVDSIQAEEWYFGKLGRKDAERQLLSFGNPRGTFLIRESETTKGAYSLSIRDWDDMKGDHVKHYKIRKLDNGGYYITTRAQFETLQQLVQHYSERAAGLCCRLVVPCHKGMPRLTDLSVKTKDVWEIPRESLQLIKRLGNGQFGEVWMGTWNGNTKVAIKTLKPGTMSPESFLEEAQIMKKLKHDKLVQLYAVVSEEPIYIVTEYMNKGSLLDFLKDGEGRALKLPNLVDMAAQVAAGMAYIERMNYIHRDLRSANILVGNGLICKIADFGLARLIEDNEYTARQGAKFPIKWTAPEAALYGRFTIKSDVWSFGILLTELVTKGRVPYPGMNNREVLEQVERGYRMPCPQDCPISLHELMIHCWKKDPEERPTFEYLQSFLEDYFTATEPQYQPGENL
T16 sequence (P41240 whole entry): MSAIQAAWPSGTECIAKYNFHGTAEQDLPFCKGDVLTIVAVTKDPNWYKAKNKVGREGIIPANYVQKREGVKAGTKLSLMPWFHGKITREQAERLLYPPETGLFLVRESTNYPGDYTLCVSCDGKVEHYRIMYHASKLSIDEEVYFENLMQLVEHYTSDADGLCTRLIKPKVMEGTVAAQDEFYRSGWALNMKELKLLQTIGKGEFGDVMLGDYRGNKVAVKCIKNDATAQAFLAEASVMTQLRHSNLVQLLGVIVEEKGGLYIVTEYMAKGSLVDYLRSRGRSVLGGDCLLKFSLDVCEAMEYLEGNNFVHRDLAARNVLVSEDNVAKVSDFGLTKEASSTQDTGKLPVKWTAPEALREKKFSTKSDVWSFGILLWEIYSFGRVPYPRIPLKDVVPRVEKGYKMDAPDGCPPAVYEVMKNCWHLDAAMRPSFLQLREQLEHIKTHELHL
T5 sequence (P07948 whole entry): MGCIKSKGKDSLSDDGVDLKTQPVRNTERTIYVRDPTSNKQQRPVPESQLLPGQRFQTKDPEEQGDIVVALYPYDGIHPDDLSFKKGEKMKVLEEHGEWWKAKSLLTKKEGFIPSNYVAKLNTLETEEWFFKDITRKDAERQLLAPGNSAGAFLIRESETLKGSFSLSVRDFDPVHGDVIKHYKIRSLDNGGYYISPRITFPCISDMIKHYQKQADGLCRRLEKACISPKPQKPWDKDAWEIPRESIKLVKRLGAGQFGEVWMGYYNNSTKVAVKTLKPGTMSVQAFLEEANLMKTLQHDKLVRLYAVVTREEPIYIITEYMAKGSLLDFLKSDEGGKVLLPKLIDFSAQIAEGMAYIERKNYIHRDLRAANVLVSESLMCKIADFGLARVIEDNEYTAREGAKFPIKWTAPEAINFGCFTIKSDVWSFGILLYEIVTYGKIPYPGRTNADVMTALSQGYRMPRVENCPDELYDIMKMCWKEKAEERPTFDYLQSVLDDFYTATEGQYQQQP
T6 sequence (P05771 whole entry): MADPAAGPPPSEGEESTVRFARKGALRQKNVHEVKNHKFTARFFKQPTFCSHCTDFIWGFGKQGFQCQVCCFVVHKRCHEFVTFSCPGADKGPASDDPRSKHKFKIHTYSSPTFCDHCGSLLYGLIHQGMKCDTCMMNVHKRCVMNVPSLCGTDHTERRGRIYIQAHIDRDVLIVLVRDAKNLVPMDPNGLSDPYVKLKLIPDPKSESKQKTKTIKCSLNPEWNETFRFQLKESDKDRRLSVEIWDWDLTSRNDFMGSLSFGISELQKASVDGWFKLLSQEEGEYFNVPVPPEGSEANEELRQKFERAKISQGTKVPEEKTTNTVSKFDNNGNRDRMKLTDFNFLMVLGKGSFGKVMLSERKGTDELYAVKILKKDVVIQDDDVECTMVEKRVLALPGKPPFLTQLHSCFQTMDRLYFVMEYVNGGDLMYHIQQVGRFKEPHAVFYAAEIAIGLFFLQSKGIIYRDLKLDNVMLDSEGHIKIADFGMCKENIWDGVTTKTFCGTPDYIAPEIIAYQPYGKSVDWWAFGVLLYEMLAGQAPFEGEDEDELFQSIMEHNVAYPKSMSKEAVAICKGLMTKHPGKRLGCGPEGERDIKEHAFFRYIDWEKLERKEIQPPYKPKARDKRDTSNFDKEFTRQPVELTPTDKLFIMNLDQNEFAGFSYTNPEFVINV
T14 sequence (P15056 whole entry): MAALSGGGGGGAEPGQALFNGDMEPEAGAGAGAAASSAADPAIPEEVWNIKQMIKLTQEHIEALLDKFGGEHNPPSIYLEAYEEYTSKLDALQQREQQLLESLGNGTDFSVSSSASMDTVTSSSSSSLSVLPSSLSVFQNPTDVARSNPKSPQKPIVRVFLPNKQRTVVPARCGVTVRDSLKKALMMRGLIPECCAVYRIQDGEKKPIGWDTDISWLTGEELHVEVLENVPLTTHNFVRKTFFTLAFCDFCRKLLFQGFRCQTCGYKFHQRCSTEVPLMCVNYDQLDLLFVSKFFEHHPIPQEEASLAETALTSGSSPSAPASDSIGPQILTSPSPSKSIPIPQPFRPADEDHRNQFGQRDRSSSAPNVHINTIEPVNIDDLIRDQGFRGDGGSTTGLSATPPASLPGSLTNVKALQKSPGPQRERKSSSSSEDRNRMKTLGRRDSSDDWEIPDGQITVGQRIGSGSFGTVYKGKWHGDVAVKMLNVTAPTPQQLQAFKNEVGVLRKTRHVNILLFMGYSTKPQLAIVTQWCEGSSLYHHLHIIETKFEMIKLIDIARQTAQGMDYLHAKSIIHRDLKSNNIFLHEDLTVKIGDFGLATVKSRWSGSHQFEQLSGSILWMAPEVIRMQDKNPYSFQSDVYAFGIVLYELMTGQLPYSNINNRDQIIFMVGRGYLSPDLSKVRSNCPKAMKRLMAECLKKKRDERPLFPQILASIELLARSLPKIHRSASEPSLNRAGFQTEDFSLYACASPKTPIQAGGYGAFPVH
T20 sequence (P06239 whole entry): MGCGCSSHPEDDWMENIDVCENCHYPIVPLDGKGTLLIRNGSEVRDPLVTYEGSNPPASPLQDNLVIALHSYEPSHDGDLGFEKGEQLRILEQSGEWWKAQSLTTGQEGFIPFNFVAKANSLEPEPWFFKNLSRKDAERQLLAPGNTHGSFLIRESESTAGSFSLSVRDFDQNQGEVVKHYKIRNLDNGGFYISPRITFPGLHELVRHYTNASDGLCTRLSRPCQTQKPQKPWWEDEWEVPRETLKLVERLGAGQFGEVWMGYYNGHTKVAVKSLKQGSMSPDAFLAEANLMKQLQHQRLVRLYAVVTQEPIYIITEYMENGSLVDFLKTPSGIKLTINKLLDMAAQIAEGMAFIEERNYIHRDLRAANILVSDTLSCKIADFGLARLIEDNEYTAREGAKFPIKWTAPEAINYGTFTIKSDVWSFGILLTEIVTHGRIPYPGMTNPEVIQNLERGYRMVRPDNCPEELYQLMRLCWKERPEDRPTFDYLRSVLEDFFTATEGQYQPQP
T4 sequence (Q16539 whole entry): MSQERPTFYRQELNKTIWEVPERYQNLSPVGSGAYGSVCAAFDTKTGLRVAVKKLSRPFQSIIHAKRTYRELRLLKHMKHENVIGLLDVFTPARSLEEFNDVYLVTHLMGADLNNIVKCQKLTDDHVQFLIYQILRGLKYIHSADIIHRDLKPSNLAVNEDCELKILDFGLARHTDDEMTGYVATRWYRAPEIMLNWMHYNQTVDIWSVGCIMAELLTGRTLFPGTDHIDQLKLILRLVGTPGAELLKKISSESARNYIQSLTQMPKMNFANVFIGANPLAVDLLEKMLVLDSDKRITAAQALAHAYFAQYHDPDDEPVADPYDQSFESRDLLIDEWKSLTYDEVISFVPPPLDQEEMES
T13 sequence (P41279 whole entry): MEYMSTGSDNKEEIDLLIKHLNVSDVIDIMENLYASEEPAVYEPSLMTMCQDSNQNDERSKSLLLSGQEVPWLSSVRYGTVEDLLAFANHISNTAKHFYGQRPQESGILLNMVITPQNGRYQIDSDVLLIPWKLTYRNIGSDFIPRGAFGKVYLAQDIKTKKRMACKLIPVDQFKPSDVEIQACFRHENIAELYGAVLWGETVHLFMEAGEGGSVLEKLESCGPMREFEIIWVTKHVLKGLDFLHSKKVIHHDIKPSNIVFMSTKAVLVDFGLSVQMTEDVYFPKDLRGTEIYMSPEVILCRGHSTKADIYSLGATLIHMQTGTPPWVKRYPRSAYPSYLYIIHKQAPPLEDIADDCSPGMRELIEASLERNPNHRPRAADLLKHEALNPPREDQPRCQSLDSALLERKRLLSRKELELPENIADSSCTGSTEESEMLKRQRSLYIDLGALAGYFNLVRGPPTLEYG

As for `CNC(=O)c1cc(Oc2ccc(F)c(NC(=O)c3cc([S+](C)[O-])n(-c4ccc(F)cc4)n3)c2)ccn1` (stereo not shown) [Ex7, 4-(4-fluoro-3-(1-(4-fluorophenyl)-5-(methylsulfinyl)-1H-pyrazole-3-carboxamido)phenoxy)-N-methylpicolinamide], the inhibition at 5 µM at HCK, against FYN, on FGR, against p38a, against LYNa and at PKCb1 was < 79% each time. Also, the inhibition at 5 µM at BLK, against SGK2, against KIT, against TNIK, at Abl2 and on ZAK was < 79% in each case. Also, the inhibition at 5 µM against COT1 is < 79%; at BRAF, 90 to 94%; at CSF1R, < 79%; against CSK, < 79%; at SGK3, < 79%; on RET, < 79%. For the same compound, the inhibition at 5 µM against CLK4, against LCK, at Abl1, at SRC and against BRK was < 79% throughout.

In the case of `Cc1ccc(NC(=O)c2cc([S+](C)[O-])n(-c3ccc(F)cc3)n2)cc1-c1cc(OCCO)nc(N2CCOCC2)c1` (stereo not shown) [Ex10, 1-(4-fluorophenyl)-N-(3-(2-(2-hydroxyethoxy)-6-morpholinopyridin-4-yl)-4-methylphenyl)-5-(methylsulfinyl)-1H-pyrazole-3-carboxamide], the inhibition at 5 µM on HCK, against FYN, at FGR, against p38a, against LYNa and against PKCb1 was < 79% in each case. The inhibition at 5 µM on BLK, against SGK2, on KIT, at TNIK, against Abl2 and on ZAK was < 79% throughout. Besides, the inhibition at 5 µM against COT1 is < 79%; at BRAF, ≥ 95%; at CSF1R it was < 79%; against CSK, < 79%; against SGK3, < 79%; at RET, < 79%. In addition, the inhibition at 5 µM against CLK4, on LCK, at Abl1, against SRC and against BRK was < 79% in each case.

Regarding `Cc1ccc(NC(=O)c2cc(S(C)(=O)=O)n(-c3ccc(F)cc3)n2)cc1-c1cc(OCCO)nc(N2CCOCC2)c1` [Ex9, 1-(4-fluorophenyl)-N-(3-(2-(2-hydroxyethoxy)-6-morpholinopyridin-4-yl)-4-methylphenyl)-5-(methylsulfonyl)-1H-pyrazole-3-carboxamide], the inhibition at 5 µM at HCK, against FYN, against FGR, on p38a, against LYNa and against PKCb1 was < 79% throughout. The inhibition at 5 µM against BLK, against SGK2, against KIT, against TNIK, on Abl2 and at ZAK was < 79% each time. In addition, the inhibition at 5 µM at COT1 was < 79%; at BRAF, ≥ 95%; on CSF1R, < 79%; against CSK it was < 79%; against SGK3, < 79%; against RET, < 79%. The inhibition at 5 µM on CLK4, against LCK, at Abl1, on SRC and against BRK was < 79% in each case.

Consider `Cc1ccc(NC(=O)c2cc(S(C)(=O)=O)n(-c3ccc(F)cc3)n2)cc1Nc1ccc2ncn(C)c(=O)c2c1` [Ex4, 1-(4-fluorophenyl)-N-(4-methyl-3-((3-methyl-4-oxo-3,4-dihydroquinazolin-6-yl)amino)phenyl)-5-(methylsulfonyl)-1H-pyrazole-3-carboxamide], for which the inhibition at 5 µM against HCK is < 79%; on FYN, < 79%; at FGR, < 79%; at p38a, 80 to 89%; at LYNa, < 79%; on PKCb1, < 79%. The inhibition at 5 µM was < 79% on BLK; < 79% at SGK2; 90 to 94% on KIT; < 79% at TNIK; < 79% against Abl2; < 79% against ZAK. Also, the inhibition at 5 µM on COT1 was < 79%; on BRAF, ≥ 95%; at CSF1R, < 79%; at CSK it was < 79%; against SGK3, < 79%; at RET it was 90 to 94%. In addition, the inhibition at 5 µM against CLK4, on LCK, at Abl1, against SRC and at BRK was < 79% in each case.

Consider `CCOC(=O)Nc1cn2nc(Nc3cc(NC(=O)c4cc([S+](C)[O-])n(-c5ccc(F)cc5)n4)ccc3C)ccc2n1` (stereo not shown) [Ex18, ethyl (6-((5-(1-(4-fluorophenyl)-5-(methylsulfinyl)-1H-pyrazole-3-carboxamido)-2-methylphenyl)amino)imidazo[1,2-b]pyridazin-2-yl)carbamate], for which the inhibition at 5 µM is ≥ 95% on HCK; ≥ 95% against FYN; 80 to 89% at FGR; ≥ 95% against p38a; ≥ 95% against LYNa; < 79% on PKCb1. In addition, the inhibition at 5 µM is < 79% against BLK; < 79% at SGK2; 80 to 89% against KIT; < 79% on TNIK; 80 to 89% against Abl2; < 79% at ZAK. Moreover, the inhibition at 5 µM against COT1 was < 79%; against BRAF it was 90 to 94%; on CSF1R, 80 to 89%; on CSK, < 79%; on SGK3, < 79%; at RET, 80 to 89%. For the same compound, the inhibition at 5 µM on CLK4 was < 79%; on LCK, ≥ 95%; at Abl1, ≥ 95%; against SRC, 80 to 89%; on BRK, < 79%.
